# Measurements taken from patent US11446253B2, “Ionic liquids for internal delivery” (priority 2017, dated 2022).
# Where “and” joins values, the source holds several entries; their conditions need not be identical. Equal entries are not always repeated. Where two headings read alike, the source gives them in different places.
# Columns and labels:
# Caco-2 monolayers [1] = system: Caco-2 monolayers
# Method: For transport experiments in transwells, a 3-day rapid Caco-2 growth system was used. Cells were placed in Corning® basal seeding medium (BSM) supplemented with MITO serum+ extender and seeded at density of 400,000 cells/mL on Millicell® PCF inserts placed inside 24-well plates. 500 μL of cells containing medium was placed in apical side while 1000 μL of cell free BSM was put in the basolateral side as per manufacturer recommendation. After 24 h of incubation at 37° C., 5% CO2, the medium was replaced with same volume of enterocyte differentiation medium supplemented with MITO serum+ extender for another 2-4 days.
# Before the start of the experiment, the medium in the transwells was replaced with DMEM devoid of phenol red, FBS and P/S in both the apical (200 μL) and basolateral side (600 μL) and the cells were incubated for 30 minutes. […] This was repeated at 1, 2, 3, 4 and 5 h. […] After the end of study at 5 h, fluorescence in the aliquots with LY and coumarin-6 concentrations were measured using a plate reader (BioTek Synergy NEO HTS™ microplate reader (Winooski, Vt., USA) at 485/530, 495/520 and 468/568 nm excitation/emission wavelengths, respectively. Calibration solutions for each test article were prepared and analyzed using fluorescence readings for LY and coumarin-6 which was used to plot of basolateral chamber concentration vs time plots.
# [2] = FITC labeled dextran, neat CAGE sample
# Method: These experiments were done using skin as a model tissue. […] 50 ul of each sample was injected intradermally into one side of a 5 cm×5 cm square of porcine skin. […] The samples were incubated at RT for 2 h (while we were getting trained) and then imaged. The samples were incubated for an additional 2 h at 37° C. and imaged again. 2 h samples had different exposures (we were still learning the system). The 4 h samples were all taken at the same exposure. The size of the fluorescing area for each sample and time point was estimated by drawing a shape around the area manually using ImageJ™
# [3] = system: non-diabetic male Wistar rats; experiment: Blood glucose lowering after intrajejunal administration; format: in vivo, rat; settings: intrajejunal controls (neat CAGE, 3 U/kg insulin-saline), 5 h
# Method: Before the start of the study, the rats were anesthetized, abdominal hair clipped and the area prepped for surgery using 70% ethanol and betadine. An incision was made in the abdomen to expose the intestine. […] Each formulation was tested in 6 rats with the exception of saline which was tested in only 3 rats. Thereafter, intestinal section was placed back into the abdomen and the muscle and skin sutured. Blood glucose was determined using a commercial glucose meter in the beginning and at every 0.5 h till the end of study at 5 h. The animals remained anesthetized throughout the study, at the end of which they were euthanized and the intestinal section around the injection site was removed for further histological examination to determine toxicity, if any. […] The results were plotted as % change in blood glucose levels with respect to initial reading at t=0 vs time.
# Before the start of the study, the rats were anesthetized, abdominal hair clipped, and the surgery area was prepped using 70% ethanol and betadine. An incision was made in the abdomen to expose the intestine. […] The time zero blood glucose was taken after the intestine was exposed i.e. immediately prior to the injections. Each formulation was tested in 6 rats with the exception of saline which was tested in only 3 rats. Thereafter, intestinal section was placed back into the abdomen and the muscle and skin sutured. Blood glucose was determined using a commercial glucose meter at the beginning and at every 0.5 h till the end of study at 5 h. Loss in body temperature in the animals during anesthesia was prevented by placing the animals on temperature controlled warming pads prior to surgery followed by additional towel cover after surgery. The animals remained anesthetized throughout the study and were euthanized after 5 h. At the end of study at 5 h, the intestinal section around the injection site was removed for further histological examination to determine toxicity, if any. […] The results were plotted as % change in blood glucose levels with respect to initial reading vs time. In addition, the saline group was considered as fasting control and graphs were plotted after subtracting blood glucose levels of the saline group.
# Caco-2 monolayers [4] = experiment: FITC-insulin transport across Caco-2 monolayers; format: cell-based, human
# Method: TEER was measured on a regular basis and when it reached above 200 ohms·cm^2, indicating sufficient tight junction integrity between cells, transport study was performed.
# (§1) After the end of study at 5 h, the FITC-insulin concentration in the aliquots were measured using a plate reader (Tecan, Infinite M1000, Mannedorf, Switzerland) at 495/520 nm excitation/emission wavelengths and plotted as % FITC-insulin transport vs time. Furthermore, TEER was measured at every time point when aliquots were withdrawn from the transwells and plotted as % change from initial value vs time.
# TEER was measured on a regular basis and when it reached above 200 ohms. cm2, indicating sufficient tight junction integrity between cells, transport study was performed.
# as §1, with “[…]” for “% change from initial value”
# Caco-2 cells [5] = experiment: Tight junction integrity (TEER) in Caco-2 cells; format: cell-based, human
# Method: […] Furthermore, TEER was measured at every time point when aliquots were withdrawn from the transwells and plotted as % change from initial value vs time.
# TEER values were recorded for each insert. […] TEER was plotted as % change from initial value vs time.
# Caco-2 cells [6] = settings: Caco-2, 12-48 h incubation
# Method: Control wells were filled with media only. […] The plates were wrapped in foil and shaken for 20 min, then absorbance was read at 570 nm using a microplate reader (M220 Infinite Pro, Tecan Group Ltd, Morrisville, N.Y.). Absorbance readings were normalized using the non-treated cell viability values.
# Caco-2 cells [7] = experiment: GFP plasmid transfection of Caco-2 cells; format: cell-based, human; settings: Caco-2, CAGE in lieu of lipofectamine, P3000 0.09%
# Method: Caco-2 cells were seeded at 80% confluency in either 96-well half area or 24-well tissue culture treated plates a day prior to adding transfection reagents. For lipofectamine transfection studies, Lipofectamine 3000 reagent (final concs. 0.07% or 0.13%) was prepared in Opti-Mem Medium and mixed. A master mix of plasmid DNA was prepared separately by diluting the GFP plasmid (50 ng/well for 96-well half area plate or 250 ng/well for 24-well plate) in Opti-Mem Medium with P3000 enhancer reagent (final conc. 0.09% v/v). The master mix of plasmid DNA was added to tubes of the diluted lipofectamine 3000 reagent at a 1:1 ratio. The mixture was allowed to incubate for 20 minutes at room temperature to allow for the plasmid to become incorporated into the cationic lipofectamine. The DNA-lipid complex mixture was then added directly to cells in complete cell culture media at final concs. of 0.07% or 0.13%. Total volume of 96-well half area plate was 100 uL and for the 24-well plate 500 uL. This transfection mixture was removed after 3 days of incubation, washed with DPBS, and replaced with complete DMEM cell culture media.
# If P3000 enhancer reagent was used, the final conc. was maintained at the same 0.09%. The transfection mixtures were removed after 1 day or 3 days, washed with DPBS, and replaced with complete DMEM cell culture media.
# [8] = system: non-diabetic male Wistar rats; experiment: Blood glucose lowering after oral administration in enterically coated capsules; format: in vivo, rat; settings: oral controls, 12 h
# Method: (§2) For the oral efficacy study, adult non-diabetic male Wistar rats were fasted overnight but given free access to water. On the next day, the capsules were administered to the rats using an oral gavage followed by subcutaneous administration of 5 mg/kg metoclopramide HCl to promote gastric emptying. Blood glucose was thereafter measured using a commercial glucose meter and subsequently every hour till 12 h. Rats were fasted throughout the period of study. […] In addition, the efficacy of subcutaneously injected 2 U/kg insulin-saline was also evaluated. […] The results were plotted as percent change in blood glucose level vs time.
# as §2, with “To determine the efficacy of insulin-CAGE administered through the oral route, elongated size 9 capsules were used. […] Following this, the capsules were enterically coated three times with 12.5% w/v Eudragit® L-100 dissolved in isopropanol. For” for “For”, “Next” for “On the next”, “was” for “was also”, “time. […] After 12 h of study, rats were euthanized, and small intestinal sections were collected for tissue histology.” for “time.”
# Caco-2 monolayers [9] = settings: for enhancement of 4 kDa FITC-dextran transport: various time points
# Method: Before the start of the experiment, the medium in the transwells was replaced with DMEM devoid of phenol red, FBS and P/S in both the apical (200 μL) and basolateral side (600 μL) and the cells were incubated for 30 minutes. […] This was repeated at 1, 2, 3, 4 and 5 h. During the study, the transwell plates were placed inside an incubator at 37° C., 5% CO2 on a shaker rotating at 100 rpm and only taken out to remove aliquots at each time point. After the end of study at 5 h, fluorescence in the aliquots with FTIC-dextran concentrations were measured using a plate reader (BioTek Synergy NEO HTS™ microplate reader (Winooski, Vt., USA) at 485/530, 495/520 and 468/568 nm excitation/emission wavelengths, respectively. Calibration solutions for each test article were prepared and analyzed using fluorescence readings for FITC-dextran which was used to plot of basolateral chamber concentration vs time plots.
substance,measurement,setting,value
Choline And GEranate [CAGE],enhancement of Lucifer yellow transport,Caco-2 monolayers [1]; 10 mM CAGE,~2 fold
same,enhancement of Lucifer yellow transport,"Caco-2 monolayers [1]; 50 mM CAGE, various time points",7-10 fold
same,area increase between 2 h and 4 h,[2],about 2 ×
same,"decrease in blood glucose of control groups, % of initial level",[3],about 25%
same,enhancement of FITC-insulin transport vs no CAGE,Caco-2 monolayers [4]; 10 mM CAGE (Example 9),1.5-2 fold
same,enhancement of insulin transport compared to insulin in saline,"Caco-2 monolayers [4]; 10 mM CAGE, Caco-2, 5 h study",3-4 fold
same,higher transport of insulin compared to insulin-saline treated cells,"Caco-2 monolayers [4]; 10 mM CAGE, all time points over 5 h",at least 3 times
same,enhancement of FITC-insulin transport vs no CAGE,Caco-2 monolayers [4]; 25 mM CAGE,1.5-2 fold
same,enhancement of FITC-insulin transport vs no CAGE,"Caco-2 monolayers [4]; 50 mM CAGE, all time points",> 10 fold
same,TEER drop,"Caco-2 cells [5]; 10 mM CAGE, 1 h",29%
same,TEER decrease,Caco-2 cells [5]; 25 mM CAGE,40-50% and ~40%
same,TEER decrease,Caco-2 cells [5]; 50 mM CAGE,40-50% and ~50%
same,"TEER recovery, % of initial level","Caco-2 cells [5]; 50 mM CAGE, 24 h",58%
same,IC50,Caco-2 cells [6],10 mM
same,GFP plasmid transfection,Caco-2 cells [7],can deliver DNA into cells
same,decrease in blood glucose of formulation controls,[8],about 25%
same,enhancement of 4 kDa FITC-dextran transport,Caco-2 monolayers [9]; 25 mM CAGE,2-6 fold
same,enhancement of 4 kDa FITC-dextran transport,Caco-2 monolayers [9]; 50 mM CAGE,6-13 fold
same,enhancement of 4 kDa FITC-dextran transport reached,"Caco-2 monolayers [9]; concentration-dependent, highest",13 fold
